From US20140274766A1, “METHODS OF USING F-SPONDIN AS A BIOMARKER FOR CARTILAGE DEGENERATIVE CONDITIONS AND BONE DISEASES” (priority 2009, published 2014)

What was measured:
[1] = test system: F-spondin expression in human chondrocytes; assay: Induction of F-spondin expression in human chondrocytes, TaqMan quantitative PCR; assay type: cell-based
Text: In another particular embodiment, the candidate compound is further tested for an effect in an animal model for arthritis, or a cartilage degenerative condition, wherein said arthritis or cartilage degenerative condition is characterized by elevated levels of F-spondin. Examples of animal models for studying arthritis and cartilage degenerative conditions may be found in the following publications, which are incorporated in their entireties: Ameye, L. G. et al., Current Opinion in Rheumatology (2006), 18(5):537-547; Warskyj, M. and Hukins, D W, Br. J. of Rheumatology (1990), 29:219-221; Bolter, S. M. et al., Biorheology, (2006), 43(3-4):379-388; Carlson, C. S. et al., J. Bone Miner. Res. (1996), September; 11(9):1209-1217; Moreau, M. et al., J. Rheumatology (2006), June; 33(6):1176-1183; Laurent, D. et al. Skeletal Radiol., (2006), August; 35(8):555-564; Hotta, H. et al. J. Orthop. Sci. (2005), November; 10(6):595-607; Mastbergen, S. C. et al. Rheumatology (Oxford), (2006), April; 45(4):405-413; and Mastbergen, S. C. et al., Osteoarthritis Cartilage (2006), January; 14(1):39-46. Chambers M. G. et al., Arthritis and Rheumatism (2001) June 44(6):1455-1465. In another particular embodiment, the potential inducers of F-spondin in cartilage/chondrocytes for use in a therapeutic setting may be selected from the group consisting of prostaglandin E2 (PGE2), cAMP inducers, Bone morphogenic protein 2 (BMP-2), Insulin-like growth factor (IGF), Fibroblast growth factor basic (FGFbasic) and Transforming Growth factor b1 (TGF-b1). […] Accordingly, it is envisioned that these agents may be used for treating conditions as described herein.

[2] = test system: OA chondrocytes; assay: Effect of PGE2 on chondrocytes (secretion, NURR1 QPCR); assay type: cell-based, human
Experimental: (§1) F-spondin induced both catabolic and anabolic gene/gene products in chondrocytes including BMP-2, type II collagen, TGF-β1, COX-2, mPGES and PGE2. To begin to address the question of whether selected F-spondin effects in cartilage are mediated by prostaglandin production, we have begun studies to characterize the effect of PGE2 in cartilage. Addition of PGE2 (1-10 uM) to cartilage explants inhibited type II collagen, aggrecan expression, ^35SO4 incorporation, as well as increased type II collagen degradation as assessed by C12C ELISA (IBEX). […] Relative to normals, NURR1 was overexpressed in OA cartilage (2-5 fold) and synovium (2 fold), confirmed by QPCR. Incubation of OA chondrocytes with PGE2 (1-10 uM) induced NURR1 expression (20-50 fold), as analyzed by QPCR. Since NURR1 binds to the NURR1 cis-acting sequence (NBRE) in the promoter region of a variety of genes, we examined the effect of adenoviral-mediated over-expression of NURR1 in chondrocytes.

[3] = test system: cartilage explants; assay: Effect of PGE2 on cartilage explants; assay type: cell-based, human; settings: PGE2 1-10 uM
Experimental: as §1

[4] = test system: chick sternal chondrocytes; assay: Retinoic acid induced maturation of chick sternal chondrocytes (RT-PCR, AP staining); assay type: cell-based
Experimental: FIGS. 21A and 21B. […] Upper sternal chondrocytes were exposed to 0, 10, 35 or 100 nM retinoic acid (RA) for 5 days in culture. […] (B) Relative gene expression levels of chondrocyte maturation markers were determined by semi-quantitative RT-PCR of RNA harvested from parallel cultures. Values represent mean±std deviation for triplicate samples.
Chondrocytes were isolated from the cephalic and caudal portion of day 14 chick embryo sterna as described by (Teixeira C C, Shapiro I M, Hatori M, Rajpurohit R, Koch C. Retinoic acid modulation of glutathione and cysteine metabolism in chondrocytes. Biochem J 1996; 314 (Pt 1):21-6). After 5 days of primary culture, chondrocytes were separated from the attached fibroblasts, harvested by centrifugation, counted, and plated in tissue culture dishes in complete medium supplemented with hyaluronidase (4-units/ml) to promote attachment. After becoming confluent, and to induce maturation, cells were treated daily with all-trans retinoic acid (35-100 nM) (Sigma) in the presence of ascorbate-2-phosphate (100 μM) for 1 week. Control cultures were treated with an equal volume of vehicle. Cultures were provided with β-glycerophosphate (5 mM) to serve as phosphate donor. For transfections, chondrocytes were transiently transfected with a plasmid encoding full length F-spondin cDNA under control of a CMV promoter, 1 day after plating in monolayer culture, using the FuGene 6 Transfection Reagent (Roche, Nutley, N.J.) according to the manufacturer's specifications. Parallel transfections with a CMV-GFP plasmid was used as a null control and to estimate transfection efficiency.
To investigate the role of F-spondin in chondrocyte maturation, we used an in vitro model in which chick sternal chondrocytes mimic growth plate chondrocytes and undergo terminal differentiation in response to RA treatment. […] Chick chondrocytes were stimulated with increasing doses of RA (10-100 nm) and harvested for gene expression analysis by qPCR after 5 days. The relative gene expression of type X collagen (ColX), alkaline phosphatae (AP), MMP-13, and F-spondin were assessed with increasing maturation on RA stimulation (FIG. 14).
Chondrocytes were isolated from the cephalic (upper) portion of 14 day old chick embryo sterna as previously described (Teixeira, C. C., et al. (1995) Calcif Tissue Int 56:252-56).^15. After 5 days of primary culture, floating chondrocytes were separated from the attached fibroblasts, and plated in tissue culture dishes in DMEM supplemented with 10% FBS and hyaluronidase (4-units/ml) to promote attachment. At confluence, differentiation was induced by daily treatment with all-trans retinoic acid (RA) from 0.1% v/v aliquots of a 1000-fold stock solution in 95% ethanol. Final concentrations ranged from 10 to 100 nM. To examine the effect of F-spondin overexpression, cultures were transfected at 70-80% confluence, with either full length (pFSI), truncated (pFS6) F-spondin cDNAs or control vector pcDNA3 (Invitrogen) using GenePorter transfection reagent (Genlantis, San Diego, Calif.). Differentiation was induced by daily treatments with 100 nM RA, which were initiated the following day. For F-spondin inhibition studies, a TSR domain specific F-spondin antibody (R1), or a spondin domain specific F-spondin antibody (R4) (R1 and R4 antibodies were provided by Dr. Avihu Klar (Hebrew University, Jerusalem, Israel), were added to chondrocyte cultures (1:100 dilution), every other day 1 h prior to RA treatment.
Different regions of the chick growth plate were visually identified and dissected into separate tubes, frozen in liquid nitrogen and crushed. Total RNA was extracted using Trizol® reagent (Life Technologies, Gaitherburg, Md.) per manufacturer's instructions.

[5] = test system: bone marrow-derived MSCs; assay: Chondrogenesis of bone marrow-derived MSC aggregate cultures; assay type: cell-based; settings: for staining for proteoglycan, type II and type X collagen: 21 d aggregates, adenoviral expression 50 ng/ml; for chondrogenesis in aggregate cultures: adult bone marrow-derived MSCs
Experimental: FIG. 6: Chondrogenesis of postnatal MSCs following exposure to TGF-β and BMP-2. Bone marrow-derived MSCs were modified to express 50 ng/ml BMP-2 or TGF-β1 using first generation recombinant adenoviral vectors and seeded into high density aggregates. After 21 d, aggregates were fixed, sectioned and stained for the presence of chondrogenic markers using toluidine blue (proteoglycan) and immunostaining for type II and X collagen. This pattern was consistent over three experiments.
Upon histological examination important differences between TGF-β1 and BMP-2-treated cultures were noted (FIG. 6). […] We propose to extend these studies further, in order to more fully characterize extracellular matrix protein expression during chondrocyte maturation and the relationship to F-spondin, by comparing the effects of various chondroinductive factors.

## CCCCC[C@H](O)/C=C/[C@H]1[C@H](O)CC(=O)[C@@H]1C/C=C\CCCC(=O)O [PGE2, prostaglandin E2]
[1]
  F-spondin expression: induced F-spondin expression
[2]; OA chondrocytes, PGE2 1-10 uM, QPCR
  induction of NURR1 expression: 20-50 fold
[2]; chondrocytes
  MMP-1 secretion: decreased
  secretion of IL-6: increased
  secretion of IL-8: increased
  secretion of MMP-13: increased
[3]
  35SO4 incorporation: inhibited
  aggrecan expression: inhibited
  type II collagen degradation (C12C ELISA): increased
  type II collagen expression: inhibited

## CC1=C(/C=C/C(C)=C/C=C/C(C)=C/C(=O)O)C(C)(C)CCC1 [RA, all-trans retinoic acid]
[4]; 100 nM RA, 5 days, p=0.04
  F-spondin expression relative to controls: approximately 3 fold
[4]; RA 0-100 nM, 5 days, RT-PCR
  MMP-13 expression: increased
  VEGF expression: increased
  type I collagen expression: pronounced upregulation
  type II collagen expression: marked downregulation
  type X collagen expression: did not increase
[4]; RA 0-100 nm, 5 days
  AP activity (red staining): dose dependant increase
[4]; RA 10-100 nm, 5 days, vs non-stimulated controls
  increase in F-spondin gene expression: 2- to 4 fold
[4]; chick sternal model, p<0.05
  upregulation of F-spondin following RA treatment: 3.5 fold

## FGF basic: Fibroblast growth factor basic
[1]
  F-spondin expression: induced F-spondin expression

## TGF-β1: Transforming growth factor-beta 1
[1]
  F-spondin expression: induced F-spondin expression
[5]
  staining for proteoglycan, type II and type X collagen: generally lower
  chondrogenesis in aggregate cultures: undergo chondrogenesis

B1: BMP-2: protein that induces the formation of bone and cartilage (protein, listed as Homo sapiens)
chain: MVAGTRCLLALLLPQVLLGGAAGLVPELGRRKFAAASSGRPSSQPSDEVLSEFELRLLSMFGLKQRPTPSRDAVVPPYMLDLYRRHSGQPGSPAPDHRLERAASRANTVRSFHHEESLEELPETSGKTTRRFFFNLSSIPTEEFITSAELQVFREQMQDALGNNSSFHHRINIYEIIKPATANSKFPVTRLLDTRLVNQNASRWESFDVTPAVMRWTAQGHANHGFVVEVAHLEEKQGVSKRHVRISRSLHQDEHSWSQIRPLLVTFGHDGKGHPLHKREKRQAKHKQRKRLKSSCKRHPLYVDFSDVGWNDWIVAPPGYHAFYCHGECPFPLADHLNSTNHAIVQTLVNSVNSKIPKACCVPTELSAISMLYLDENEKVVLKNYQDMVVEGCGCR
[1]
  F-spondin expression: induced F-spondin expression
[5]
  staining for proteoglycan, type II and type X collagen: more intense staining
  chondrogenesis in aggregate cultures: undergo chondrogenesis
